From patent publication US12384753B2, “17-beta-hydroxysteroid dehydrogenase type 13 inhibitors and methods of use thereof” (Enanta Pharmaceuticals, Inc., priority 2021, dated 2025)
pIC50: −log10 of the molar value.

Target: Recombinant human HSD17B13 (Homo sapiens (Human), UniProt Q7Z5P4)
Test: HSD17B13 rapid-fire mass spectrometry assay (RF/MS assay)
Format: biochemical
Settings: inhibition of HSD17B13; LTB4 10 μM, NAD+ 0.5 mM, RT 3 h; IC50 ranges A-E
Description: HSD17B13 rapid-fire mass spectrometry assay (RF/MS assay). Recombinant human HSD17B13 was expressed and purified from sf9 cells at Charles River Labs (Saffron Walden, UK). Leukotriene B4 (Catalog #71160-24-2) and 12-oxoleukotriene B4 (Catalog #20140) were purchased from Cayman Chemicals (Ann Arbor, Michigan.). NAD+ (Catalog #N8285), BSA (Catalog #A7030), DMSO (Catalog #D2650), and Tween-20 (Catalog #11332465001) were purchased from Sigma (St. Louis, MO). Formic acid (Catalog #28905) was from ThermoFisher Scientific and 384 deep well PP microplates (Catalog #784261) were from Greiner Bio-One. In a typical IC50 assay performed in a 384w PP microplate, test compounds (0-100 μM) were incubated with HSD17B13 (80 nM), LTB4 (10 μM), and NAD^+ (0.5 mM) in 10 μL assay buffer (20 mM Tris (pH 7.5), BSA (0.005%), and Tween-20 (0.01%)) at RT for 3 h. The assays were quenched by adding 20 μL of 0.15% aqueous formic acid and the plates were frozen at −80° C. RF/MS analysis was performed at PureHoney Technologies (Billerica, MA) on a RapidFire RF300 system (Agilent Technologies, Inc.) coupled to an API 4000 triple quadrupole mass spectrometer (Sciex) equipped with Agilent RapidFire cartridge type A (C4). The mobile phase was 0.09% formic acid and 0.01% trifluoracetic acid in water (Buffer A) and 0.09% formic acid and 0.01% trifluoracetic acid in 80% aqueous acetonitrile (Buffer B). The RapidFire method conditions were the following: 250 ms aspirate, 3000 ms load/desalt, 4000 ms elute, and 500 ms re-equilibrate. RF-MS/MS was performed in negative polarity (−4500 V), the source temperature was 650° C., and gas 1 and gas 2 settings for nitrogen were set to 50. The curtain gas and collision gas were also nitrogen and were set to 20 and 12, respectively. Leukotriene B4 (335.3) and 12-oxoLeukotriene B4 (333.3) SRM transitions were optimized with Discovery Quant software and extracted ion counts for these analytes were determined.
Data Analysis. HSD17B13 enzyme activity was measured as percent conversion of extracted ion counts and normalized to high and low controls to determine percent residual activity at various concentrations of test compounds. Data were fitted to normalized activity (variable slope) versus concentration fit in GraphPad Prism 7 to determine IC50. All experiments were run in duplicates.
By using above method, the inhibition of HSD17B13 was evaluated for the compounds of Formula (I). IC50 ranges are as follows: A=IC50<0.100 μM; B=0.100 μM<IC50<0.500 μM; C=0.500 μM<IC50<1 μM; D=1 μM<IC50<100 μM; E=IC50>100 μM

Recombinant human HSD17B13, sequence (Q7Z5P4 20-300): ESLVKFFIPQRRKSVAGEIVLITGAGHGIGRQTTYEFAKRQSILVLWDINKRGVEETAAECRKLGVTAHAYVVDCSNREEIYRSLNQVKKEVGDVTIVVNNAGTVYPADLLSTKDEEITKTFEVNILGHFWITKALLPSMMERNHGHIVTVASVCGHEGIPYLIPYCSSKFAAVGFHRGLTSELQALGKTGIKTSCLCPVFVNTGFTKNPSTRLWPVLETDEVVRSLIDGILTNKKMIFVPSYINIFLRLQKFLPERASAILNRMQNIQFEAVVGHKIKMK

| Compound | pIC50 |
| --- | --- |
| O=C(O)c1ccc(NS(=O)(=O)c2cnc(-c3ccc(F)cc3)s2)cc1 [Example 60, 4-((2-(4-fluorophenyl)thiazole)-5-sulfonamido)benzoic acid] | 6.00 to 6.30 |
| O=C(O)c1cc(O)c(NS(=O)(=O)c2cnc(-c3ccc(F)cc3)s2)cc1F [Example 61] | > 7.00 |
| O=C(O)c1ccc(NS(=O)(=O)c2cnc(-c3ccc(F)cc3)s2)c(O)c1F [Example 62] | > 7.00 |
| O=C(O)c1ccc(NS(=O)(=O)c2csc(-c3ccc(O)cc3)n2)cc1 [Example 63] | 6.00 to 6.30 |
| O=C(O)C1CCN(S(=O)(=O)c2cnc(-c3ccc(F)cc3)s2)CC1 [Example 64] | 4.00 to 6.00 |
| O=C(O)C1CCCN(S(=O)(=O)c2cnc(-c3ccc(F)cc3)s2)C1 (stereo not drawn) [Example 65] | < 4.00 |
| O=C(O)C1CCC(NS(=O)(=O)c2cnc(-c3ccc(F)cc3)s2)CC1 (stereo not drawn) [Example 66] | < 4.00 |
| O=C(O)[C@H]1CC[C@H](NS(=O)(=O)c2cnc(-c3ccc(F)cc3)s2)CC1 [Example 67] | 4.00 to 6.00 |
| O=C(O)C12CC(NS(=O)(=O)c3cnc(-c4ccc(F)cc4)s3)(C1)C2 [Example 68] | < 4.00 |
| COc1cc(C(=O)NO)ccc1NS(=O)(=O)c1cnc(-c2ccc(F)cc2)s1 [Example 69, 4-((2-(4-fluorophenyl)thiazole)-5-sulfonamido)-N-hydroxy-3-methoxybenzamide] | 4.00 to 6.00 |
| CONC(=O)c1ccc(NS(=O)(=O)c2cnc(-c3ccc(F)cc3)s2)c(OC)c1 [Example 70] | 4.00 to 6.00 |
| COc1cc(C(=O)N(C)O)ccc1NS(=O)(=O)c1cnc(-c2ccc(F)cc2)s1 [Example 71] | 4.00 to 6.00 |
| COc1nc(C(=O)O)ccc1NS(=O)(=O)c1cnc(-c2ccc(F)cc2)s1 [Example 74] | 4.00 to 6.00 |
| O=C(O)c1cc(NS(=O)(=O)c2cnc(-c3ccc(F)cc3)s2)cs1 [Example 75] | 4.00 to 6.00 |
| N#Cc1cc(C(=O)O)ccc1NS(=O)(=O)c1cnc(-c2ccc(F)cc2)s1 [Example 76] | 6.00 to 6.30 |
| O=C(O)c1ccc(NS(=O)(=O)c2cnc(-c3ccc(F)cc3)s2)s1 [Example 77] | 4.00 to 6.00 |
| COc1cc(C(=O)O)c(Cl)cc1NS(=O)(=O)c1cnc(-c2ccc(F)cc2)s1 [Example 78] | 6.00 to 6.30 |
| COc1cc(C(=O)O)ccc1NS(=O)(=O)c1cnn(-c2ccc(F)cc2)c1 [Example 79] | 4.00 to 6.00 |
| COc1cc(C(=O)O)ccc1NS(=O)(=O)c1cnn(-c2ccc(F)cc2)c1C [Example 80] | 4.00 to 6.00 |
| COc1cc(C(=O)O)ccc1NS(=O)(=O)c1cnc(-c2ccccc2)o1 [Example 81] | 6.30 to 7.00 |

| Compound | pIC50 |
| --- | --- |
| O=C(O)c1ccc(NS(=O)(=O)c2cnc(-c3ccc(F)cc3)s2)c2ncccc12 [Example 82] | 4.00 to 6.00 |
| O=C(O)c1cnc(NS(=O)(=O)c2cnc(-c3ccc(F)cc3)s2)nc1 [Example 83] | 4.00 to 6.00 |
| COc1nc(C(=O)O)cnc1NS(=O)(=O)c1cnc(-c2ccc(F)cc2)s1 [Example 84] | 4.00 to 6.00 |
| COc1cc(C(=O)O)cnc1NS(=O)(=O)c1cnc(-c2ccc(F)cc2)s1 [Example 85] | 6.30 to 7.00 |
| O=C(O)c1cc(NS(=O)(=O)c2cnc(-c3ccc(F)cc3)s2)co1 [Example 86] | 6.30 to 7.00 |
| O=C(O)c1ccc(NS(=O)(=O)c2cnc(-c3ccc(F)cc3)s2)c2ccccc12 [Example 87] | 4.00 to 6.00 |
| COc1cc(C(=O)O)ccc1NS(=O)(=O)c1csc(-c2ccc(F)c3ccccc23)n1 [Example 88] | 4.00 to 6.00 |
| COc1cc(C(=O)O)ccc1NS(=O)(=O)c1csc(-c2ccc(F)c3ccoc23)n1 [Example 89] | 4.00 to 6.00 |
| O=C(O)c1cnc(NS(=O)(=O)c2cnc(-c3ccc(F)cc3)s2)cn1 [Example 90] | 4.00 to 6.00 |
| Cn1nc(C(=O)O)cc1NS(=O)(=O)c1cnc(-c2ccc(F)cc2)s1 [Example 91] | < 4.00 |
| O=C(O)c1cc(NS(=O)(=O)c2cnc(-c3ccc(F)cc3)s2)n(-c2ccccc2)n1 [Example 92] | 4.00 to 6.00 |
| O=C(O)c1ccc2nc(NS(=O)(=O)c3cnc(-c4ccc(F)cc4)s3)oc2c1 [Example 93] | 4.00 to 6.00 |
| O=C(O)c1ccc2nc(NS(=O)(=O)c3cnc(-c4ccc(F)cc4)s3)sc2c1 [Example 94] | 4.00 to 6.00 |
| COc1cc(C(=O)O)ccc1NS(=O)(=O)c1csc(-c2cccc(F)c2)n1 [Example 95] | 6.30 to 7.00 |
| COc1cc(C(=O)O)ccc1NS(=O)(=O)c1csc(-c2ccccc2F)n1 [Example 96] | 6.30 to 7.00 |
| COc1cc(C(=O)O)ccc1NS(=O)(=O)c1csc(-c2ccc(C)cc2)n1 [Example 97] | 6.30 to 7.00 |
| COc1cc(C(=O)O)ccc1NS(=O)(=O)c1csc(-c2ccc(C(F)(F)F)cc2)n1 [Example 98] | 6.30 to 7.00 |
| COc1ccc(-c2nc(S(=O)(=O)Nc3ccc(C(=O)O)cc3OC)cs2)cc1 [Example 99] | 6.30 to 7.00 |
| COc1cc(C(=O)O)ccc1NS(=O)(=O)c1csc(-c2ccncc2)n1 [Example 100] | 4.00 to 6.00 |
| COc1cc(C(=O)O)ccc1NS(=O)(=O)c1csc(-c2ccn(C)n2)n1 [Example 101] | 4.00 to 6.00 |

| Compound | pIC50 |
| --- | --- |
| COc1cc(C(=O)O)ccc1NS(=O)(=O)c1csc(-c2ccccc2)n1 [Example 102] | > 7.00 |
| COc1cc(C(=O)O)ccc1S(=O)(=O)Nc1csc(-c2ccccc2)n1 [Example 103] | 6.00 to 6.30 |
| O=C(O)c1cnc(NS(=O)(=O)c2cnc(-c3ccc(F)cc3)s2)o1 [Example 104] | 4.00 to 6.00 |
| COc1cc(C(=O)O)ccc1N(C)S(=O)(=O)c1cnc(-c2ccc(F)cc2)s1 [Example 105] | 4.00 to 6.00 |
| O=C(O)c1ncc(NS(=O)(=O)c2cnc(-c3ccc(F)cc3)s2)cn1 [Example 106] | 4.00 to 6.00 |
| O=C(O)c1ccc(NS(=O)(=O)c2cnc(-c3ccc(F)cc3)s2)cc1O [Example 107] | 6.00 to 6.30 |
| O=S(=O)(Nc1ccc(O)cc1)c1cnc(-c2ccc(F)cc2)s1 [Example 108] | 4.00 to 6.00 |
| O=S(=O)(Nc1ccc(O)cc1O)c1cnc(-c2ccc(F)cc2)s1 [Example 109] | 4.00 to 6.00 |
| COc1cc(O)ccc1NS(=O)(=O)c1cnc(-c2ccc(F)cc2)s1 [Example 110] | 4.00 to 6.00 |
| O=S(=O)(Nc1ccc(Br)cc1C(F)F)c1cnc(-c2ccc(F)cc2)s1 [Example 111] | 4.00 to 6.00 |
| O=C(O)c1ccc(NS(=O)(=O)c2csc(-c3ccc(O)cc3)n2)c(O)c1 [Example 112] | 6.30 to 7.00 |
| COc1ccc(NS(=O)(=O)c2cnc(-c3ccc(F)cc3)s2)cc1Cl [Example 113] | 4.00 to 6.00 |
| O=S(=O)(Nc1ccc(O)c(Cl)c1)c1cnc(-c2ccc(F)cc2)s1 [Example 114] | 4.00 to 6.00 |
| CS(=O)(=O)c1cc(C(=O)O)ccc1NS(=O)(=O)c1cnc(-c2ccc(F)cc2)s1 [Example 115] | 4.00 to 6.00 |
| O=C(O)c1ccc(NS(=O)(=O)c2cnc(-c3ccc(F)cc3)s2)c2c1OCCO2 [Example 116] | 4.00 to 6.00 |
| COc1cc(C(=O)O)ccc1NS(=O)(=O)c1csc(-c2ccc(C(=O)O)cc2)n1 [Example 117] | 4.00 to 6.00 |
| O=S(=O)(O)c1ccc(NS(=O)(=O)c2cnc(-c3ccc(F)cc3)s2)cc1 [Example 118] | < 4.00 |
| COc1cc(S(N)(=O)=O)ccc1NS(=O)(=O)c1cnc(-c2ccc(F)cc2)s1 [Example 119] | 4.00 to 6.00 |
| COc1cc(C(N)=O)ccc1NS(=O)(=O)c1cnc(-c2ccc(F)cc2)s1 [Example 120] | 4.00 to 6.00 |
| CNS(=O)(=O)c1cc(OC)c(NS(=O)(=O)c2cnc(-c3ccc(F)cc3)s2)cc1C [Example 121] | 4.00 to 6.00 |
